Experiments:
Type in all cases: physicochemical
[1] = Particle size by image analysis (Galai CIS-100) of salmeterol xinafoate suspension in HFA 134a
Procedure: (§1) Salmeterol xinafoate formulations in HFA 134a, of strength 25 μg per actuation, and 10% w/w (relative to drug) of the relevant surfactant compound of formula (I) were prepared in crimped glass bottles using salmeterol xinafoate (8.7 mg), HFA 134a (18 g) and the relevant compound (0.87 mg). The control was prepared without the addition of a surfactant.
In this measurement, particle size is represented as the equivalent diameter of a circle of equal area to the object. The mean is the average of 4 determinations. The particle size measurement was obtained by transferring the suspensions to a pressurised cell, and video-imaging the sample under shear via a microscope objective.
The equivalent diameter is defined as the diameter of a circle of equal area to the object.
The mean equivalent diameter can be weighted by number, length or volume. e.g. For three particles with equivalent diameters of x, y and z: […]

[2] = Andersen Cascade Impaction of salmeterol xinafoate HFA 134a formulation; conditions: Initial timepoint, beginning of use, mean of 3 cans/inhalers, 10% w/w surfactant
Procedure: as §1
The formulation, the preparation of which is described above, was profiled using an Andersen Cascade Impactor. Ten actuations at “beginning of use” (BoU) were collected in the impactor from an inhaler after 4 priming actuations were fired to waste. The drug delivered was then quantified by HPLC analysis. Testing was performed at the initial timepoint (following sample preparation). The results, in Table 2 are shown as the mean analysis of 3 cans/inhalers.
The profile obtained was used to determine total dose emitted dose (ex-valve and ex-actuator) and the fine particle mass (FPM, defined as the sum of stages 3–5). The percentage fine particle mass expresses the FPM as a percentage of the total dose emitted (ex-valve). The FPM is used as a measure of the proportion of the drug likely to reach the therapeutic target in the lungs.

[3] = Content uniformity by dose through use testing; conditions: Initial timepoint, 10% w/w surfactant
Procedure: as §1
The content uniformity of the formulation, the preparation of which is described above, was assessed by dose through use testing. Testing was performed on 10 cans/inhalers at “beginning of use” (BoU) and “end of use” (EoU). After each inhaler had been primed (4 shots fired to waste), actuations 1 and 2 (BoU) were collected. The next 116 actuations of each inhaler were then fired to waste using an automated method and actuations 119 and 120 (EoU) collected.
Assessment of content uniformity was performed at the initial timepoint (following sample preparation). Mean results from the two BoU actuations (1+2 for 10 inhalers) and the two EoU actuations (119+120 for same 10 inhalers) together with the percentage relative standard deviation (% RSD) for the 10 cans are shown in Table 3. […] The presence of the surfactant therefore improves the content uniformity of the inhaler. Furthermore the formulations containing the compound of Example 1, advantageously, show a reduction in the relative standard deviation at the BoU and EoU.

With `O=C(CCC(F)(F)C(F)(F)F)OCC(OC(=O)CCC(F)(F)C(F)(F)F)C(=O)O` (centres unmarked) [Example 1, 2,3-Bis[(4,4,5,5,5-pentafluoronentanoyl)oxy]propanoic acid] the “Mean Length weighted diameter” value ([1]; salmeterol xinafoate 25 μg per actuation in HFA 134a with 10% w/w (relative to drug) surfactant, mean of 4 determinations) was 21.5 μm, the “suspension stabilising properties (flocculation of drug particles)” value ([1]; salmeterol xinafoate formulation in HFA 134a with 10% w/w surfactant) was “has suspension stabilising properties” and the “Total Dose Emitted (Ex-Actuator)” value ([2]; 10 actuations) was 21.1 µg. For the same compound, the “Total Dose Emitted (Ex-Valve)” value ([2]; 10 actuations) was 23.9 µg, the “% FPM (FPM as percentage of total dose emitted ex-valve)” value [2] was 50.3% and the “FPM (fine particle mass, sum of stages 3–5)” value [2] was 12.0 µg. It also gave a BoU dose ([3]; actuations 1+2, mean of 10 inhalers) of 21.2 µg and an EoU dose ([3]; actuations 119+120, mean of 10 inhalers) of 25.1 µg.

Reference: patent US7217833B2, “Carboxylic acid compounds for use as surfactants” (Glaxco Group Limited, priority 2002, dated 2007)
